Values joined by “and” are separate entries in the source; they are usually repeats but may differ in a detail not shown here. Equal entries are not always repeated. Where no end group is shown, it is not given here.
Columns and labels:
Format in all cases: cell-based
[1] = target: T1, PTHR1 (Homo sapiens, UniProt Q03431); test: cAMP accumulation assay (HTRF) in CHO-K1/Ga15/PTHR1 cells; parameters: host or cells: CHO-K1 (recombinant line CHO-K1/Ga15/PTHR1); conditions: for Emax: CHO-K1, cAMP assay, fitted dose-response maximum; for cAMP accumulation activity compared to control peptide: FIG. 3, PTH 1-34 positive control; for cAMP: relative to PTH [1-34], CHO-K1/Ga15/PTHR1 cells
T1 sequence (Q03431 27-593): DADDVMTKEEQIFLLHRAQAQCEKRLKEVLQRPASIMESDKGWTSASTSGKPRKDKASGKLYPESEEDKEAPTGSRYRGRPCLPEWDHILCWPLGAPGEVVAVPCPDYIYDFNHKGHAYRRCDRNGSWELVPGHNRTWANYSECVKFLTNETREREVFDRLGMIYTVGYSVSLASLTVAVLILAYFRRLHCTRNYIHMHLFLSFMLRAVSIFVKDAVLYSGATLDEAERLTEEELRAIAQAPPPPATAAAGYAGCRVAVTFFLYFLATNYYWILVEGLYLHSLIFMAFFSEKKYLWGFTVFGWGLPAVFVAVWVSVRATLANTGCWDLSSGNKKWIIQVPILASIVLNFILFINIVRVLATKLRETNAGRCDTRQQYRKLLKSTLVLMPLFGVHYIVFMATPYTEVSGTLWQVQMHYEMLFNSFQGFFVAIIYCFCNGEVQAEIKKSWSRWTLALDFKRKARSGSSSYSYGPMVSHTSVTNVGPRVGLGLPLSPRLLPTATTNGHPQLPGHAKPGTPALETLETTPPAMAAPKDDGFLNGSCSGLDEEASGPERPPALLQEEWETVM
Description: Cell suspension (5 μL) was seeded in 384-well plates at a density of 3,000 cells/well. Cells were treated with test samples (5 μL) or agonist (PTH 1-34) for 30 minutes at room temperature. cAMP-d2 working solution (5 μL) and anti-cAMP-Cryptate working solution (5 μL) were added to cells and incubated for 60 minutes at room temperature. The signal of the assay plate was read with PheraStar (BMG LABTECH, NC), an HTRF compatible reader.

[2] = target: T1, PTHR1; test: β-arrestin1 recruitment BRET assay in transfected HEK293T cells; parameters: Flag (N); Life Technologies Corporation, CA (arrestin cDNA); host or cells: HEK293T (CRL-3216, ATCC); conditions: for −log10Slope: fitted curve slope; for −log10Slope / EC50: replicate plates; for β1-arrestin: relative to PTH [1-34], HEK293T cells, BRET
Description: (§1) 18-24 hours post transfection, the Luciferase substrate Coelenterazine (NanoLight Technologies, AZ) was added to cells, a baseline BRET measurement was taken after 5 minutes incubation, and then serial dilutions of peptides, diluted in PBS (with 0.5 mM MgCl2+0.1% BSA FAF), were added to cells, and BRET signal was measured every 2 minutes for 30 minutes on Hybrid Multi-Mode Reader (Synergy Neo2, BioTek, VT). Seventy-five peptides were tested in the β-arrestin recruitment assay.

[3] = target: T1, PTHR1; test: β-arrestin2 recruitment BRET assay in transfected HEK293T cells; parameters: Flag (N); Life Technologies Corporation, CA (arrestin cDNA); host or cells: HEK293T (CRL-3216, ATCC); conditions: for −log10Slope: fitted curve slope; for −log10Slope / EC50: replicate plates; for β-arrestin2 assay activity compared to control peptide: FIG. 2, PTH 1-34 positive control; for β2-arrestin: relative to PTH [1-34], HEK293T cells, BRET
Description: as §1

[4] = cAMP assay, fitted dose-response curve, read-out: −log10EC50 (converted)
[5] = cAMP assay, fitted dose-response slope
[6] = β-arrestin1 recruitment, read-out: −log10EC50 (converted)
[7] = cAMP accumulation, fitted curve slope, replicate plates
[8] = cAMP accumulation, replicate plates, read-out: −log10EC50 (converted)
[9] = β-arrestin2 recruitment, read-out: −log10EC50 (converted)

| Emax [1] [%] | cAMP [1] | −log10Slope ([2]; β-arrestin1 recruitment) | EC50 [2, 6] | −log10Slope ([3]; β-arrestin2 recruitment) | −log10Slope [1, 7] | EC50 [1, 8] [nM] | EC50 [3, 9] | β2-arrestin [3] | Compound | cAMP accumulation activity compared to control peptide [1] | β-arrestin2 assay activity compared to control peptide [3] | further results |
| --- | --- | --- | --- | --- | --- | --- | --- | --- | --- | --- | --- | --- |
| 3.99 | ++ | −1.524 | 29400 nM | −5.93 |  |  |  |  | GIAVITLMVLRALLELQEIGRKITLELLKEYI [Peptide R2-51] | increased activity as compared to the control peptide |  | EC50 [1, 4]: 0.105 nM; −log10Slope [1, 5]: 10.26 |
|  | ++ | −4.125 and −1.577 | 571 nM and 3600 nM | −3.733 and −2.83 | −2.205 | 0.00583 | 856 nM and 1410 nM |  | AVAEIQLMHQRAKWDLLIELVKLLHELLKEYI [Peptide R2-40] | increased activity as compared to the control peptide |  |  |
| 97.4 |  | 2.312 | 0.149 nM | −0.9875 |  |  |  |  | GIAVITLMLLRAYLELLEELVKILHELLRRYH [Peptide R2-52] |  |  | EC50 [1, 4]: 2570 nM; −log10Slope [1, 5]: −3.437; β-arrestin1 recruitment compared to PTH 1-34 ([2]; FIG. 1, PTH 1-34 positive control): higher levels of recruitment of β-arrestin 1; β1-arrestin [2]: ++ |
|  |  | −1.503 and −1.149 and −5.574 |  | −2.7849 and −2.122 and −2.912 | 13.11 | 285 | 8.07 nM and 4.22 nM and 23.7 nM | + | AVAEIQLMHQRAKWAIQEIGIKITRELLERYL [Peptide R2-42] |  | activity similar to the control peptide |  |
| 100 | ++ |  |  |  |  |  |  | ++ | CC[C@H](C)[C@H](NC(=O)[C@H](CCC(=O)O)NC(=O)[C@H](CO)NC(=O)[C@@H](NC(=O)[C@@H](N)CO)C(C)C)C(=O)N[C@@H](CCC(N)=O)C(=O)N[C@@H](CC(C)C)C(=O)N[C@@H](CCSC)C(=O)N[C@@H](Cc1cnc[nH]1)C(=O)N[C@@H](CC(N)=O)C(=O)N[C@@H](CC(C)C)C(=O)NCC(=O)N[C@@H](CCCCN)C(=O)N[C@@H](Cc1cnc[nH]1)C(=O)N[C@@H](CC(C)C)C(=O)N[C@@H](CC(N)=O)C(=O)N[C@@H](CO)C(=O)N[C@@H](CCSC)C(=O)N[C@@H](CCC(=O)O)C(=O)N[C@@H](CCCN=C(N)N)C(=O)N[C@H](C(=O)N[C@@H](CCC(=O)O)C(=O)N[C@@H](Cc1c[nH]c2ccccc12)C(=O)N[C@@H](CC(C)C)C(=O)N[C@@H](CCCN=C(N)N)C(=O)N[C@@H](CCCCN)C(=O)N[C@@H](CCCCN)C(=O)N[C@@H](CC(C)C)C(=O)N[C@@H](CCC(N)=O)C(=O)N[C@@H](CC(=O)O)C(=O)N[C@H](C(=O)N[C@@H](Cc1cnc[nH]1)C(=O)N[C@@H](CC(N)=O)C(=O)N[C@@H](Cc1ccccc1)C(=O)O)C(C)C)C(C)C [Teriparatide, reference compound] | increased activity as compared to the control peptide | increased activity as compared to control | −log10Slope ([1]; cAMP accumulation, fitted curve slope, replicate plates, listed as R1-101): −4.492 and −4.864 and −4.046; β1-arrestin [2]: +; −log10Slope ([2]; β-arrestin1 recruitment, listed as R1-101): −2.906 and −3.664 and −1.356; −log10Slope ([3]; β-arrestin2 recruitment, listed as R1-101): −3.44 and −3.409 and −3.396 |
|  | ++ | −3.276 and −2.346 and −3.027 | 2.88 nM and 15 nM and 2.81 nM | −0.789 and −3.6425 and −9.383 | 0.4711 | 0.0365 |  |  | AVAEIQLMHQRAKWSLREELEKLLKELLKEYI [Peptide R2-44] | increased activity as compared to the control peptide |  |  |
| 98.8 |  | −3.1505 and −0.7628 | 1890 nM | −8.231 and −1.939 |  |  | 0.0212 nM | ++ | AVAEIQLMHQRAKWKILEELLKILIDLLKQYI [Peptide R2-48] |  | increased activity as compared to control | EC50 [1, 4]: 64 nM; −log10Slope [1, 5]: −14.2687 |

Second part, the compound before the results:

| Compound | Emax [1] [%] | cAMP [1] | −log10Slope ([2]; β-arrestin1 recruitment) | EC50 [2, 6] | −log10Slope ([3]; β-arrestin2 recruitment) | −log10Slope [1, 7] | EC50 [1, 8] [nM] | EC50 [3, 9] | β2-arrestin [3] | cAMP accumulation activity compared to control peptide [1] | β-arrestin2 assay activity compared to control peptide [3] | further results |
| --- | --- | --- | --- | --- | --- | --- | --- | --- | --- | --- | --- | --- |
| AVAEIQLMHQRAKWDVLIELAKLLAELLRRYH [Peptide R2-47] |  | ++ | −1.834 and −2.2235 and −1.644 |  | −2.078 and −1.716 and −1.634 | 12 |  |  |  | increased activity as compared to the control peptide |  | EC50 [1]: 0.591 nM; EC50 ([2]; −log10EC50, β-arrestin1 recruitment): 1430 nM and 651 nM and 3640 nM; EC50 ([3]; −log10EC50, β-arrestin2 recruitment): 1370 nM and 1710 nM and 3480 nM |
| AVAEIQLMHQRAKWKLELELKAFLDQILKDVL [Peptide R2-36] |  | + | −5.884 and −3.429 and −1.931 | 1.47 nM and 4.7 nM and 2.91 nM | −4.1664 and −3.85 and −3.8162 | −1.696 | 4.76 | 2.5 nM and 1.98 nM and 5.39 nM | ++ | activity similar to the control peptide | increased activity as compared to control | β1-arrestin [2]: + |
| GVAELQLMHDLAKIRAEYELREMLLRLLEEIF [Peptide R2-1] |  |  | −0.1441 |  | −1.954 | −5.896 | 95.8 | 0.622 nM | ++ |  | increased activity as compared to control |  |
| AVAEIQLMHQRAKWELEFELFREFLKLLVDFF [Peptide R1-97] | 99.3 |  | −0.04462 and −1.336 and −0.04454 and −4.221 |  | −4.859 and −4.946 and −1.289 and −4.995 |  |  |  |  |  |  | EC50 [1, 4]: 58.7 nM; −log10Slope [1, 5]: −14.176 |
| AVAEIQLMHQRAKWLEELKLKDDLRKILEDVY [Peptide R2-30] |  |  | −4.267 and −2.2289 | 13.3 nM and 5.21 nM | −2.543 and −1.4524 | −18.1852 | 80 | 12.1 nM and 5.02 nM | + |  | activity similar to the control peptide |  |
| AVAEIQLMHQRAKWRLEIELLKKLKEILKDVY [Peptide R2-34] |  |  | −3.251 and −3.221 and −4.25 | 2.75 nM and 6.54 nM and 3.31 nM | −3.972 and −3.591 and −3.249 | −11.9049 | 106 | 4.54 nM and 3.85 nM and 8.05 nM | + |  | activity similar to the control peptide |  |
| AVAEIQLMHQRAKWELEYELFEMFLKLLEEIF [Peptide R1-100] | 99.9 |  | −6.023 and −5.129 and −4.482 | 607 nM and 605 nM and 569 nM | −5.84 and −1.653 and −5.805 |  |  |  |  |  |  | EC50 [1, 4]: 52.8 nM; −log10Slope [1, 5]: −12.0796 |
| SVMMIQVMHDLAKIRAEYELREMLLRLLEEIF [Peptide R2-8] |  |  | −2.339 | 3.7 nM | 4.445 | −24.9299 | 31.9 | 0.349 nM | ++ |  | increased activity as compared to control |  |
| AVAEIQLMHQRAKWGLDLELRARLREILRDVY [Peptide R2-31] |  |  | −2.895 and −4.559 | 9.96 nM and 2.96 nM | −3.98 and −2.409 | −0.697 |  | 6.58 nM and 7.64 nM | + |  | activity similar to the control peptide |  |
| GIAVITLMDLRAYLRAEYELREMLLRLLEEIF [Peptide R2-13] |  |  | −3.163 | 1.61 nM | −3.619 | −3.312 | 4870 |  |  |  |  | β1-arrestin [2]: + |
